Results on 12 compounds are retold here after patent publication US7615646B2, “Chiral indole intermediates and their fluorescent cyanine dyes containing functional groups” (Carnegie Mellon University, priority 2002, dated 2009).

The nature of this data set: Measurement of pKa values of pH-sensitive cyanine dyes (fluorescence intensity versus pH). The settings on record: for lowering of dye pKa relative to dye 1: Cl on the unquaternized indolenine unit; for pKa: observed in aqueous phosphate buffers via fluorescence, excitation 640 nm, emission 680 nm. The format is physicochemical. On the procedure: The general method of pKa determination was performed as follows. Purified dye was dissolved in water to give a bulk stock solution (if necessary, a limited amount of acetonitrile was added to ensure solubility). By experiment, the volume of this stock solution that was required to be added to 10.0 ml of water+0.1% v/v trifluoroacetic acid, in order to give an absorbance of 0.5±0.02 at the dye peak wavelength, was determined. This volume of bulk stock solution was then added to 10.0 ml of water, to be used as the working stock solution.
Aqueous phosphate buffers were prepared covering the region of pH 4-9 {see “Data for Biochemical Research”, p. 432, 3rd edition, R. M. C Dawson, D. C. Elliott, W. H. Elliott & K. M. Jones, 1987 Oxford University Press. Buffers outside the listed range were made by adding in orthophosphoric acid or sodium hydroxide}. Plastic fluorescence cuvettes were then charged with 3.5 ml of each buffer. A fixed volume of dye working stock solution (in the range 50-250 μl) was added to a cuvette of buffer, the solution mixed and the fluorescence signal measured immediately {Perkin Elmer LS55 fluorimeter, excitation 640 nm. Emission spectrum was scanned and fluorescence intensity value at 680 nm recorded}. This was repeated for all cuvettes. The graph of fluorescence intensity versus pH was plotted using PRISM, the data fitted to a sigmoidal dose-response curve and the pKa value extracted as the calculated IC50 value from the fitting.

“3-(5-carboxypentyl)-2-[(1E,3E,5E)-5-(7-chloro-3,3-dimethyl-5-sulfo-1,3-dihydro-2H-indol-2-ylidene)penta-1,3-dienyl]-3-methyl-5-sulfo-1-(4-sulfobutyl)-3H-indolium [Dye 4]”: the “lowering of dye pKa relative to dye 1” value is given as ~0.8 units.

What is called pKa is the pH at which an ionisable group is half protonated. Read a high pKa as a group that holds its proton tightly. Take `CC1(C)C(/C=C/C=C/C=C2/Nc3ccc(S(=O)(=O)O)cc3C2(C)CCCCCC(=O)O)=[N+](CCCCS(=O)(=O)[O-])c2ccc(S(=O)(=O)O)cc21` (stereo not shown) [Dye 1, 2-{(1E,3E,5E)-5-[3-(5-carboxypentyl)-3-methyl-5-sulfo-1,3-dihydro-2H-indol-2-ylidene]penta-1,3-dienyl}-3,3-dimethyl-5-sulfo-1-(4-sulfobutyl)-3H-indolium]: the pKa is 7.

As for `CC1(CCCCCC(=O)O)C(/C=C/C=C/C=C2/Nc3c(Cl)cc(Cl)cc3C2(C)C)=[N+](CCCCS(=O)(=O)[O-])c2ccc(S(=O)(=O)O)cc21` (stereo not shown) [Dye 2, 3-(5-carboxypentyl)-2-[(1E,3E,5E)-5-(5,7-dichloro-3,3-dimethyl-1,3-dihydro-2H-indol-2-ylidene)penta-1,3-dienyl]-3-methyl-5-sulfo-1-(4-sulfobutyl)-3H-indolium], the “lowering of dye pKa relative to dye 1” value is ~1.0 units and the pKa was 6.05.

`CC1(CCCCCC(=O)O)C(/C=C/C=C/C=C2/Nc3c(Cl)cc(S(=O)(=O)O)cc3C2(C)C)=[N+](CCCCS(=O)(=O)[O-])c2ccc(S(=O)(=O)O)cc21` (stereo not shown) [Dye 4, 3-(5-carboxypentyl)-2-[(1E,3E,5E)-5-(7-chloro-3,3-dimethyl-5-sulfo-1,3-dihydro-2H-indol-2-ylidene)penta-1,3-dienyl]-3-methyl-5-sulfo-1-(4-sulfobutyl)-3H-indolium]: the pKa was 6.2.

As to `CC1(C)C(/C=C/C=C/C=C2/Nc3ccc(S(=O)(=O)O)cc3C2(C)C)=[N+](CCCCS(=O)(=O)[O-])c2ccc(S(=O)(=O)O)cc21` [Dye 6, 2-[(1E,3E,5E)-5-(3,3-dimethyl-5-sulfo-1,3-dihydro-2H-indol-2-ylidene)penta-1,3-dienyl]-3,3-dimethyl-5-sulfo-1-(4-sulfobutyl)-3H-indolium], the pKa was 7.

As to `CC1(C)C(/C=C/C=C/C=C2/Nc3ccc(Cl)cc3C2(C)C)=[N+](CCCCS(=O)(=O)[O-])c2ccc(S(=O)(=O)O)cc21` [Dye 7, 2-[(1E,3E,5E)-5-(5-chloro-3,3-dimethyl-1,3-dihydro-2H-indol-2-ylidene)penta-1,3-dienyl]-3,3-dimethyl-5-sulfo-1-(4-sulfobutyl)-3H-indolium], the “lowering of dye pKa relative to dye 1” value is recorded as 0.3-0.4 units.

Consider `CC1(CCCCCC(=O)ON2C(=O)CCC2=O)C(/C=C/C=C/C=C2/Nc3c(Cl)cc(S(=O)(=O)O)cc3C2(C)C)=[N+](CCCCS(=O)(=O)[O-])c2ccc(S(=O)(=O)O)cc21` (stereo not shown) [Dye 16.3, 3-(5-Carboxypentyl)-2-[(1E,3E,5E)-5-(7-chloro-3,3-dimethyl-5-sulfo-1,3-dihydro-2H-indol-2-ylidene)penta-1,3-dienyl]-3-methyl-5-sulfo-1-(4-sulfobutyl)-3H-indolium, N-hydroxysuccinimidyl ester], for which the pKa was 6.2.

The compound `CC1(C)C(/C=C/C=C/C=C2/Nc3ccc(S(=O)(=O)O)cc3C2(C)CCCCCC(=O)O)=[N+](CCCCS(=O)(=O)[O-])c2ccc(Cl)cc21` (stereo not shown) [Example 3] gave a pKa of 7.44.

For the compound `CC1(C)C(/C=C/C=C/C=C2/Nc3ccccc3C2(C)C)=[N+](CCCCS(=O)(=O)[O-])c2ccc(S(=O)(=O)O)cc21` [Example 5], the pKa worked out at 7.

`CC1(C)C(/C=C/C=C/C=C2/Nc3ccc(Cl)cc3C2(C)C)=[N+](CCCCS(=O)(=O)[O-])c2ccc(S(=O)(=O)O)cc21` [Example 7]: the pKa worked out at 6.65.

Consider `CC1(C)C(/C=C/C=C/C=C2/Nc3ccc(C#N)cc3C2(C)C)=[N+](CCCCS(=O)(=O)[O-])c2ccc(S(=O)(=O)O)cc21` [Example 8], for which the pKa is 6.65.

`CC1(C)C(/C=C/C=C/C=C2/Nc3ccc(S(=O)(=O)O)cc3C2(C)C)=[N+](CCCCS(=O)(=O)[O-])c2ccc(Cl)cc21` [Example 9] yielded a pKa of 7.36.
